The subject of this test is HBV. Briefly: Anti-HBV assay (inhibition of HBV replication in HepG2.cl42 cells, HBV DNA by qPCR). It is filed as cell-based, HBV ayw strain. The settings on record: Hepatitis B virus, 96 h, treated four days, HBV DNA quantified by real time PCR, read-out: HBsAg EC50. In general terms: In qPCR the cycle at which signal appears reflects the starting amount.

Molecules are shown by their SMILES. Where only a bound is given, the exact number is not on record here.

`C[C@H]1Cc2noc(-c3ccc(Cl)cc3)c2CN1C(=O)Nc1cc(F)c(F)c(F)c1` [Compound 18]: the EC50 (usually the concentration needed to bring the measured effect to its halfway point) fell in the range of 100 to 1000 nM.

On to `C[C@H]1Cc2noc(-c3ccc(OC(F)F)cc3)c2CN1C(=O)Nc1cc(F)c(F)c(F)c1` [Compound 24], for which the EC50 lay within 100 to 1000 nM.

`C[C@H]1Cc2noc(-c3cccc(C#N)c3)c2CN1C(=O)Nc1cc(F)c(F)c(F)c1` [Compound 14]: the EC50 lay within 100 to 1000 nM.

For the molecule `C[C@H]1Cc2noc(N3CCCC3=O)c2CN1C(=O)Nc1cc(F)c(F)c(F)c1` [Compound 8.1, (S)-6-methyl-3-(2-oxopyrrolidin-1-yl)-N-(3,4,5-trifluorophenyl)-6,7-dihydroisoxazolo[4,3-c]pyridine-5(4H)-carboxamide], the EC50 was less than 100 nM.

Consider `Cc1ccccc1-c1onc2c1CN(C(=O)Nc1cc(F)c(F)c(F)c1)[C@@H](C)C2` [Compound 17], for which the EC50 was 100 to 1000 nM.

Regarding `C[C@H]1Cc2noc(-c3cnn(C)c3)c2CN1C(=O)Nc1cc(F)c(F)c(F)c1` [Compound 31], the EC50 was in the range of 100 to 1000 nM.

As for `CC1c2c(noc2-c2ccc(F)cc2F)CCN1C(=O)Nc1cc(F)c(F)c(F)c1` (stereo not drawn) [Compound 4.1, 3-(2,4-difluorophenyl)-4-methyl-N-(3,4,5-trifluorophenyl)-6,7-dihydroisoxazolo[4,3-c]pyridine-5(4H)-carboxamide], the EC50 was not below 1000 nM.

In the case of `C[C@H]1Cc2noc(N3CCCCC3=O)c2CN1C(=O)Nc1ccccc1` [Compound 54, (S)-6-methyl-3-(2-oxopiperidin-1-yl)-N-phenyl-6,7-dihydroisoxazolo[4,3-c]pyridine-5(4H)-carboxamide], the EC50 fell in the range of 100 to 1000 nM.

As to `C[C@H]1Cc2noc(-c3ccc(F)cc3)c2CN1C(=O)Nc1cc(F)c(F)c(F)c1` [Compound 13], the EC50 lay in the range of 100 to 1000 nM.

Regarding `C[C@H]1Cc2noc(-c3ccccc3Cl)c2CN1C(=O)Nc1cc(F)c(F)c(F)c1` [Compound 12], the EC50 was in the range of 100 to 1000 nM.

As to `C[C@@H]1Cc2noc(-c3ccc(F)cc3F)c2CN1C(=O)Nc1cc(F)c(F)c(F)c1` [Compound 3.1-II, (R)-3-(2,4-difluorophenyl)-6-methyl-N-(3,4,5-trifluorophenyl)-6,7-dihydroisoxazolo[4,3-c]pyridine-5(4H)-carboxamide], the EC50 was 100 to 1000 nM.

With `C[C@H]1Cc2noc(N3CCCCC3=O)c2CN1C(=O)Nc1cc(F)c(F)c(F)c1` [Compound 46, (S)-6-methyl-3-(2-oxopiperidin-1-yl)-N-(3,4,5-trifluorophenyl)-6,7-dihydroisoxazolo[4,3-c]pyridine-5(4H)-carboxamide], the 50% effective concentration (EC50) is less than 100 nM.

As for `Cc1cc(-c2onc3c2[C@H](C)N(C(=O)Nc2cc(F)c(F)c(F)c2)CC3)no1` [Compound 26, (S)-4-methyl-3-(5-methylisoxazol-3-yl)-N-(3,4,5-trifluorophenyl)-6,7-dihydroisoxazolo[4,3-c]pyridine-5(4H)-carboxamide], the concentration for a half-maximal effect (EC50) is not below 1000 nM.

Turning to `C[C@H]1Cc2noc(C3CCCC3)c2CN1C(=O)Nc1cc(F)c(F)c(F)c1` [Compound 43], the EC50 fell in the range of 100 to 1000 nM.

Take `COc1ccc(-c2onc3c2CN(C(=O)Nc2cc(F)c(F)c(F)c2)[C@@H](C)C3)cc1` [Compound 9, (S)-3-(4-methoxyphenyl)-6-methyl-N-(3,4,5-trifluorophenyl)-6,7-dihydroisoxazolo[4,3-c]pyridine-5(4H)-carboxamide]: the EC50 is less than 100 nM.

Consider `COC[C@@H]1CN(c2onc3c2CN(C(=O)Nc2cc(F)c(F)c(F)c2)[C@@H](C)C3)C(=O)O1` [Compound 61, (S)-3-((S)-5-(methoxymethyl)-2-oxooxazolidin-3-yl)-6-methyl-N-(3,4,5-trifluorophenyl)-6,7-dihydroisoxazolo[4,3-c]pyridine-5(4H)-carboxamide], for which the EC50 was in the range of 100 to 1000 nM.

As to `Cc1nc(-c2onc3c2CN(C(=O)Nc2cc(F)c(F)c(F)c2)[C@@H](C)C3)cs1` [Compound 29, (S)-6-methyl-3-(2-methylthiazol-4-yl)-N-(3,4,5-trifluorophenyl)-6,7-dihydroisoxazolo[4,3-c]pyridine-5(4H)-carboxamide], the EC50 was in the range of 100 to 1000 nM.

Consider `COc1cccc(-c2onc3c2CN(C(=O)Nc2cc(F)c(F)c(F)c2)[C@@H](C)C3)c1` [Compound 20], for which the EC50 was 100 to 1000 nM.

Consider `C[C@H]1Cc2noc(N3CCCOC3=O)c2CN1C(=O)Nc1cc(F)c(F)c(C(F)F)c1` [Compound 51, (S)—N-(3-(difluoromethyl)-4,5-difluorophenyl)-6-methyl-3-(2-oxo-1,3-oxazinan-3-yl)-6,7-dihydroisoxazolo[4,3-c]pyridine-5(4H)-carboxamide], for which the EC50 was less than 100 nM.

Turning to `Cc1cccc(-c2onc3c2CN(C(=O)Nc2cc(F)c(F)c(F)c2)[C@@H](C)C3)c1` [Compound 23], the EC50 is not below 1000 nM.

For the molecule `C[C@H]1Cc2noc(N3CCOCC3=O)c2CN1C(=O)Nc1cc(F)c(F)c(F)c1` [Compound 49, (S)-6-methyl-3-(3-oxomorpholino)-N-(3,4,5-trifluorophenyl)-6,7-dihydroisoxazolo[4,3-c]pyridine-5(4H)-carboxamide], the EC50 was less than 100 nM.

As for `O=C(Nc1cc(F)c(F)c(F)c1)C1CCc2noc(-c3ccc(F)cc3F)c2C1` (stereo not drawn) [Compound 6.1, 3-(2,4-difluorophenyl)-N-(3,4,5-trifluorophenyl)-4,5,6,7-tetrahydrobenzo[c]isoxazole-5-carboxamide], the EC50 lay within 100 to 1000 nM.

`CC1CCN(c2onc3c2CN(C(=O)Nc2cc(F)c(F)c(F)c2)[C@@H](C)C3)C1=O` (stereo partly drawn) [Compound 56, (6S)-6-methyl-3-(3-methyl-2-oxopyrrolidin-1-yl)-N-(3,4,5-trifluorophenyl)-6,7-dihydroisoxazolo[4,3-c]pyridine-5(4H)-carboxamide]: the 50% effective concentration (EC50) is less than 100 nM.

For `C[C@H]1Cc2noc(-c3cccc(Cl)c3)c2CN1C(=O)Nc1cc(F)c(F)c(F)c1` [Compound 22], the concentration for a half-maximal effect (EC50) is not below 1000 nM.

On to `Cc1nc(-c2onc3c2[C@H](C)N(C(=O)Nc2cc(F)c(F)c(F)c2)CC3)no1` [Compound 42], for which the EC50 was in the range of 100 to 1000 nM.

For `C[C@H]1Cc2noc(N3C(=O)CCC3=O)c2CN1C(=O)Nc1cc(F)c(F)c(F)c1` [Compound 60, (S)-3-(2,5-dioxopyrrolidin-1-yl)-6-methyl-N-(3,4,5-trifluorophenyl)-6,7-dihydroisoxazolo[4,3-c]pyridine-5(4H)-carboxamide], the EC50 is not below 1000 nM.

For the molecule `C[C@H]1c2c(noc2C2CCCC2)CCN1C(=O)Nc1cc(F)c(F)c(F)c1` [Compound 44], the EC50 was not below 1000 nM.

Turning to `C[C@H]1c2c(noc2-c2ccc(F)cn2)CCN1C(=O)Nc1cc(F)c(F)c(F)c1` [Compound 28, (S)-3-(5-fluoropyridin-2-yl)-4-methyl-N-(3,4,5-trifluorophenyl)-6,7-dihydroisoxazolo[4,3-c]pyridine-5(4H)-carboxamide], the EC50 was 100 to 1000 nM.

On to `C[C@H]1Cc2noc(-c3ccccc3F)c2CN1C(=O)Nc1cc(F)c(F)c(F)c1` [Compound 10], for which the EC50 is 100 to 1000 nM.

With `C[C@H]1Cc2noc(-c3cccc(F)c3)c2CN1C(=O)Nc1cc(F)c(F)c(F)c1` [Compound 21], the EC50 lay within 100 to 1000 nM.

As to `COC[C@H]1CN(c2onc3c2CN(C(=O)Nc2cc(F)c(F)c(F)c2)[C@@H](C)C3)C(=O)O1` [Compound 62, (S)-3-((R)-5-(methoxymethyl)-2-oxooxazolidin-3-yl)-6-methyl-N-(3,4,5-trifluorophenyl)-6,7-dihydroisoxazolo[4,3-c]pyridine-5(4H)-carboxamide], the EC50 was 100 to 1000 nM.

For `O=C(Nc1cc(F)c(F)c(F)c1)N1CCc2noc(N3CCCC3)c2C1` [Compound 5.3, 3-(pyrrolidin-1-yl)-N-(3,4,5-trifluorophenyl)-6,7-dihydroisoxazolo[4,3-c]pyridine-5(4H)-carboxamide], the EC50 is not below 1000 nM.

On to `C[C@H]1Cc2noc(-c3ccn(C)n3)c2CN1C(=O)Nc1cc(F)c(F)c(F)c1` [Compound 33], for which the EC50 was less than 100 nM.

For the molecule `Cc1nc(-c2onc3c2CN(C(=O)Nc2cc(F)c(F)c(F)c2)[C@@H](C)C3)no1` [Compound 41], the EC50 is 100 to 1000 nM.

Regarding `C[C@H]1Cc2noc(-c3ccc(C#N)cc3)c2CN1C(=O)Nc1cc(F)c(F)c(F)c1` [Compound 19], the EC50 was in the range of 100 to 1000 nM.

On to `C[C@H]1Cc2noc(-c3ccc(F)cn3)c2CN1C(=O)Nc1cc(F)c(F)c(F)c1` [Compound 27, (S)-3-(5-fluoropyridin-2-yl)-6-methyl-N-(3,4,5-trifluorophenyl)-6,7-dihydroisoxazolo[4,3-c]pyridine-5(4H)-carboxamide], for which the EC50 was in the range of 100 to 1000 nM.

Take `O=C(Nc1cc(F)c(F)c(F)c1)N1CCc2noc(N3CCCC3=O)c2C1` [Compound 5.1, 3-(2-oxopyrrolidin-1-yl)-N-(3,4,5-trifluorophenyl)-6,7-dihydroisoxazolo[4,3-c]pyridine-5(4H)-carboxamide]: the EC50 was 100 to 1000 nM.

Take `C[C@H]1c2c(noc2-c2cnn(C)c2)CCN1C(=O)Nc1cc(F)c(F)c(F)c1` [Compound 32]: the EC50 was not below 1000 nM.

With `C[C@H]1Cc2noc(N3CCC(CC(=O)O)C3=O)c2CN1C(=O)Nc1cc(F)c(F)c(F)c1` (stereo partly drawn) [Compound 63, 2-(1-((S)-6-methyl-5-((3,4,5-trifluorophenyl)carbamoyl)-4,5,6,7-tetrahydroisoxazolo[4,3-c]pyridin-3-yl)-2-oxopyrrolidin-3-yl)acetic acid], the EC50 is not below 1000 nM.

For `C[C@H]1Cc2noc(N3CCOC3=O)c2CN1C(=O)Nc1cc(F)c(F)c(F)c1` [Compound 55, (S)-6-methyl-3-(2-oxooxazolidin-3-yl)-N-(3,4,5-trifluorophenyl)-6,7-dihydroisoxazolo[4,3-c]pyridine-5(4H)-carboxamide], the EC50 was in the range of 100 to 1000 nM.

`C[C@H]1Cc2noc(-c3ccc(F)cc3F)c2CN1C(=O)Nc1cc(F)c(F)c(F)c1` [Compound 3.1-I, (S)-3-(2,4-difluorophenyl)-6-methyl-N-(3,4,5-trifluorophenyl)-6,7-dihydroisoxazolo[4,3-c]pyridine-5(4H)-carboxamide]: the EC50 is less than 100 nM.

Take `CC1Cc2noc(-c3ccc(F)cc3F)c2CN1C(=O)Nc1cc(F)c(F)c(F)c1` (stereo not drawn) [Compound 3.1, 3-(2,4-difluorophenyl)-6-methyl-N-(3,4,5-trifluorophenyl)-6,7-dihydroisoxazolo[4,3-c]pyridine-5(4H)-carboxamide]: the EC50 was in the range of 100 to 1000 nM.

The values are drawn from US20210079015A1, “NOVEL DIHYDROISOXAZOLE COMPOUNDS AND THEIR USE FOR THE TREATMENT OF HEPATITIS B” (Novartis AG, priority 2017, published 2021).
